{"source": "paper PMC3638593", "about": "“1,4-dihydroxy-2-naphthoic Acid Induces Apoptosis in Human Keratinocyte: Potential Application for Psoriasis Treatment” (Evidence-based Complementary and Alternative Medicine : eCAM, 2013)", "assay_type_in_all_cases": "cell-based, human", "key": {"[1]": {"system": "HaCaT cells", "test": "Hoechst 33342 fluorescent staining for morphological evaluation", "details": "72 h", "protocol": "After DHNA treatment, HaCaT cells were fixed in 4% paraformaldehyde for 30 min, washed with phosphate-buffered saline (PBS) and then stained with 2 μg/mL Hoechst 33342 (Molecular Probes, Eugene, OR, USA) for 15 min at room temperature in the dark. Morphology was evaluated using an Axiophot fluorescence microscope (Carl Zeiss, Oberkochen, Germany)."}, "[2]": {"system": "HaCaT cells", "test": "Annexin V/propidium iodide staining, flow cytometry", "details": "for viability at 30 µM / viability at 60 µM / viability at 120 µM / viability at 240 µM: Homo sapiens, HaCaT, read-out: viable cells (FITC−/PI−, lower left)", "protocol": "After DHNA treatment, HaCaT cells were resuspended in annexin V binding buffer (10 mM HEPES, 140 mM NaCl, and 2.5 mM CaCl2, pH 7.4) and then incubated with FITC-conjugated annexin V (Biosource International, Inc., USA), and 0.5 μg/mL propidium iodide (PI) for 15 min at room temperature in the dark. Cells were analyzed on a FACSCanto flow cytometer (BD Biosciences, San Jose, CA, USA) immediately and then analyzed using WinMDI 2.9 (developed by Dr. J. Trotter, Scripps Institute, La Jolla, CA, USA). The total number of early (FITC+/PI−) and late (FITC+/PI+) apoptotic cells was assessed. In another experiment, HaCaT cells were preincubated with 40 μM pan-caspase inhibitor Z-VAD-FMK (BD Pharmingen, San Diego, CA, USA) for 1 h before exposure to DHNA."}, "[3]": {"system": "apoptosis related proteins in HaCaT cells", "test": "Western blot of apoptosis related proteins", "protocol": "After DHNA treatment HaCaT cells were collected and lysed in CelLytic M Mammalian Cell Lysis/Extraction Reagent with freshly added Protease Inhibitor Cocktail for 30 min at 4°C. Cell lysate was centrifuged at 15000 g for 15 min at 4°C and supernatant was collected as whole cell lysate. Protein concentration was determined by Bio-Rad protein assay dye reagent concentrate (Bio-Rad Laboratories, Hercules, CA, USA) following the manufacturer's instructions. Whole cell lysate was denatured by boiling for 5 min in 6X SDS loading buffer (0.375 M Tris [pH 6.8], 30% glycerol, 12% SDS, 0.2% bromophenol blue and 12% β-mercaptoethanol). Equal amount of protein (10–20 μg) was then separated by 12–15% SDS-PAGE and later proteins were transferred to polyvinylidene difluoride membrane (Millipore, Billerica, MA, USA) using Trans-Blot SD semidry transfer cell (Bio-Rad Laboratories). After that, membranes were blocked with 2–5% (w/v) bovine serum albumin or nonfat dry milk in Tris-buffered Saline-Tween (TBS-T; 0.05% v/v Tween-20, 10 mM Tris [pH 7.4], 150 mM NaCl) for 1 h and subsequently incubated overnight at 4°C with different primary antibodies in TBS-T. Membrane was then washed using TBS-T and followed by incubation with corresponding horseradish peroxidase labeled second antibodies (Santa Cruz Biotechnology) in TBS-T for 1 h. After washing of membrane with TBS-T, protein bands were visualized using Immobilon Western Chemiluminescent HRP Substrate (Millipore) and autoradiography with Lumi-Film Chemiluminescent Detection Film (Roche Applied Science). Equal protein loading was monitored by β-actin antibody on the same membrane."}, "[4]": {"system": "AIF and endoG in HaCaT cells", "test": "Immunofluorescence staining of AIF and endoG", "details": "240 μM (49.01 μg/mL), 24 h", "protocol": "HaCaT cells were first seeded on cover-slipped 6 well plates. After DHNA treatment, cells were washed three times with PBS and fixed in 1 : 1 acetone/methanol at −20°C for 10 min. Thereafter, cells were washed with PBS three times and then blocked for 15 min in blocking solution (1% BSA in PBS) at room temperature. After that, cells were incubated with either one of the following antibodies in blocking solution overnight at 4°C: apoptosis inducing factor, AIF or endonuclease G, and endoG. Cells were then washed with PBS three times and incubated with corresponding secondary antibody conjugated to Alexa Fluor 488 (Molecular Probes) in blocking solution in dark at room temperature for 1 h. After further washing with PBS for three times, the cover slips were then mounted on glass slides using the Vectashield mounting medium with DAPI (Vector Laboratories, Burlingame, CA). Stained cells were then visualized under the Nikon Ti-E inverted microscope (Nikon, Tokyo, Japan)."}, "[5]": {"system": "IL-1α release from NCTC 2544 cells", "test": "IL-1α release assay (ELISA)", "protocol": "NCTC 2544 cells were seeded and treated with various concentrations of DHNA or dithranol for 72 h. After incubation, the microplate was centrifuged and conditioned medium was collected to determine the extracellular IL-1α (IL-1α release) using an IL-1α ELISA kit (Diaclone Research, France). All other steps were then according to the manufacturer's protocol. Results were expressed in pg/mL."}}, "note": "Where “and” joins values, the source holds several entries; their conditions need not be identical. Equal entries are not always repeated. Where two headings read alike, the source gives them in different places.", "data": [{"compound": "O=C(O)c1cc(O)c2ccccc2c1O", "note": "[DHNA, 1,4-dihydroxy-2-naphthoic acid]", "values": [{"measurement": "nuclear morphology (Hoechst 33342)", "setting": "[1]; 120 μM (24.5 μg/mL)", "result": "light blue/white fluorescence was emitted from the nuclei of all cells"}, {"measurement": "nuclear fragmentation (Hoechst 33342)", "setting": "[1]; 30, 60 and 120 μM", "result": "nuclear fragmentation was also observed"}, {"measurement": "nuclear morphology (Hoechst 33342)", "setting": "[1]; 30 and 60 μM", "result": "chromatin condensation"}, {"measurement": "total apoptotic fraction (early plus late apoptotic cells)", "setting": "[2]; 30 μM/6.13 μg/mL, 9 h", "result": 10.4, "unit": "%"}, {"measurement": "total apoptotic fraction (early plus late apoptotic cells)", "setting": "[2]; 30 μM/6.13 μg/mL, 24 h", "result": 13.7, "unit": "%"}, {"measurement": "total apoptotic fraction (early plus late apoptotic cells)", "setting": "[2]; 240 μM/49.01 μg/mL, 9 h", "result": 45.5, "unit": "%"}, {"measurement": "total apoptotic fraction (early plus late apoptotic cells)", "setting": "[2]; 240 μM/49.01 μg/mL, 24 h", "result": 89.7, "unit": "%"}, {"measurement": "viability at 30 µM", "setting": "[2]; 9 h", "result": 88.9, "unit": "%"}, {"measurement": "viability at 30 µM", "setting": "[2]; 24 h", "result": 85, "unit": "%"}, {"measurement": "viability at 60 µM", "setting": "[2]; 9 h", "result": 86.2, "unit": "%"}, {"measurement": "viability at 60 µM", "setting": "[2]; 24 h", "result": 77.5, "unit": "%"}, {"measurement": "viability at 120 µM", "setting": "[2]; 9 h", "result": 81.8, "unit": "%"}, {"measurement": "viability at 120 µM", "setting": "[2]; 24 h", "result": 50.2, "unit": "%"}, {"measurement": "viability at 240 µM", "setting": "[2]; 9 h", "result": 44.3, "unit": "%"}, {"measurement": "viability at 240 µM", "setting": "[2]; 24 h", "result": 8.8, "unit": "%"}, {"measurement": "Bid cleavage", "setting": "[3]; 240 μM (49.01 μg/mL), 12 h", "result": "not cleaved"}, {"measurement": "Fas receptor and active form of caspase-3/7/8", "setting": "[3]; 240 μM (49.01 μg/mL), 12 h", "result": "upregulated"}, {"measurement": "PARP cleavage", "setting": "[3]; 240 μM (49.01 μg/mL), 12 h", "result": "induced PARP cleavage"}, {"measurement": "active form of caspase-9", "setting": "[3]; 240 μM (49.01 μg/mL), 12 h", "result": "no active form of caspase-9 was found"}, {"measurement": "procaspase-8 level", "setting": "[3]; 240 μM (49.01 μg/mL), 12 h", "result": "decreased"}, {"measurement": "expression levels of Bcl-2, Bcl-xL, Bid, and FADD", "setting": "[3]; 12 h", "result": "no significant changes"}, {"measurement": "activated caspase-9 and cleaved Bid", "setting": "[3]; 24 h", "result": "could then be detected"}, {"measurement": "localization of AIF and endoG", "setting": "[4]", "result": "translocated to the nucleus"}, {"measurement": "IL-1α release at IC50 on NCTC 2544 keratinocytes", "setting": "[5]; 46.80 μM or 9.56 μg/mL, 72 h", "result": "no significant IL-1α was released"}, {"measurement": "higher concentration needed for IL-1α release than dithranol", "setting": "[5]; NCTC 2544, 72 h, DHNA versus dithranol", "result": "~ 30 times"}, {"measurement": "concentration at which IL-1α release is significantly induced", "setting": "[5]; NCTC 2544, 72 h, versus vehicle control", "result": "60 μM and 12.25 μg/mL"}]}]}
